Measured values from patent US8629240B2, “Peptide ligands for clusterin and uses thereof” (National Research Council of Canada, priority 2009, dated 2014).

Columns and labels:
4T1 tumor [1] = assay: In vivo blocking experiment with excess unlabeled peptide; design: species or system mouse; settings: 5 μmoles unlabeled peptide with 25 nmoles P3378-DL680, 15 min post-injection
Method: To further validate the specificity of the in vivo targeting ability of the P3378-DL680 probe, a blocking experiment using an excess of unlabeled P3378 peptide was carried out. Mice received 25 nmoles of P3378-DL680 alone (n=1) or in combination with 5 μmoles unlabeled P3378 or P3378R peptide (both n=2) in 100 μL sterile saline. Animals in the control groups received 25 nmoles of P3378-DL680 with or without 5 μmoles of the unlabeled scrambled P3378R peptide, whereas the experimental animals were injected with 25 nmoles of P3378-DL680 in combination with 5 μmoles of unlabeled P3378 peptide. […] Furthermore, using the gated NIRF lifetime and the OptiView 3D reconstruction module we selected in each mouse the slice along the Z-axis that contained the highest concentration of P3378-DL680 and determined its relative concentration.

[2] = biological target: T1, extracellular domain of the Type II TGF-beta receptor (Homo sapiens, UniProt P37173); assay: SPR specificity test with Type II TGF-beta receptor extracellular domain; assay type: binding; settings: receptor 38 nM to 4.5 μM over immobilized peptide
T1 construct: the extracellular domain of the Type II TGF-beta receptor
Method: (§1) The specificity of the clusterin-peptide interactions was investigated using SPR biosensor analysis and proteins unrelated to clusterin. Immobilization of the peptides and other proteins on the sensor chips and the SPR experiments were conducted as described in Example 4.
FIG. 8 presents SPR biosensor sensorgrams showing the interaction of the extracellular domain of the Type II TGF-beta receptor (38 nM to 4.5 μM) with immobilized P3378 (500 RUs) (FIG. 8A) or P3375 (1200 RUs) (FIG. 8B).

[3] = test system: 4T1 tumor and organs (liver, spleen, pancreas, kidney, heart, lungs); assay: Confocal microscopy of probe distribution in 4T1 tumor and organs; assay type: in vivo, mouse; settings: 25 nmoles P3378-DL680, 15 min post-injection, liver, spleen, pancreas, kidney, heart, lungs
Method: Confocal microscopy was used to evaluate the distribution of the P3378-DL680 probe in the 4T1 tumor and various organs (liver, spleen, pancreas, kidney, heart, lungs), harvested 15 min post-injection. […] DAPI staining of the nuclei was used to visualize tissue morphology.

[4] = biological target: T2, rhCLU (recombinant human clusterin) (Homo sapiens, UniProt P10909); assay: SPR biosensor analysis, rhCLU flowed over immobilized peptide; assay type: binding
T2 construct: made in house; host or cells: HEK-293 cells
Text: Peptides were immobilized on research-grade CM5 sensor chips by a maleimide coupling method. CM5 sensor chips (research grade) and EDC were purchased from Biosensor AB (Uppsala, Sweden). This thiol coupling generates a stable thioether bond between reactive maleimide groups on the sensor chip surface and the thiol groups of the peptides. A heterobifunctional reagent, SMCC-hydrazide (4-[N-maleimidomethyl]cyclohexane-1 carboxylhydrazide; 99.5% pure; purchased from Molecular Biosciences Inc. (Boulder, Colo.)), was used to introduce reactive maleimido groups to the sensor surface. Immobilization was performed at 25° C. at a flow rate of 5 μL/min. A continuous flow of the HBS-EP buffer (20 mM HEPES, 150 mM NaCl, 3.4 mM EDTA and 0.05% Tween™-20 at pH 7.4) was maintained over the sensor surface. The carboxylated dextran matrix on the sensor surface was activated by an injection of 50 μL of a freshly mixed solution containing 172 μL of 1.2 mM […] (EDC) in 100 mM MES buffer at pH 5.00, and 28 μL of 17.8 mM SMCC-hydrazide in 40% DMF. The ratio of the SMCC:EDC was 2.5:1. Peptide-coupled surfaces were generated by injecting peptides (30-100 μg/ml) in 100 mM MES buffer (at pH 5.0). The amount of peptide immobilized on the activated surface was controlled by altering the contact time with the peptide solution and was between approximately 400 and 500 RU, or 400-500 pg peptide/mm^2. The immobilization procedure was completed by a 50 μL injection of 50 mM cysteine in 1 M sodium chloride and 0.1M sodium acetate (pH 4) to quench excess active maleimide groups.
Protein-peptide interactions were followed using a BIAcore 3000 instrument (Biosensor AB, Uppsala, Sweden). All binding experiments were carried out at 25° C. under a continuous flow of the HBS-EP buffer (20 mM HEPES, 150 mM NaCl, 3.4 mM EDTA and 0.05% Tween-200) at pH 7.4 over the sensor surface at a flow rate of 20 μL/min. Different concentrations of rh-clusterin in the HBS-EP buffer were injected over the peptide-derivatized sensor chips. Dissociation was monitored for up to 300 s post-injection. The surfaces were fully regenerated by 15 s injection of an HBS-EP buffer solution containing 5 mM NaOH. […] Reference responses from control flow cells, containing unmodified dextran surfaces, were subtracted from peptide-containing flow cells, for each analyte injection using the BiaEvaluation software version 3.0 (Biacore AB, Uppsala, Sweden).
The resulting sensorgrams were used for kinetic rate determination through global fitting of the experimental data to a simple 1:1 Langmuir binding model. […] Affinity data (KD) from the binding studies were obtained by plotting the response in RU at the steady state, Req, versus the concentration of clusterin, C, and by fitting these curves to a one-site binding model, Req=C*xRmax/(C+KD) where Rmax is the value in RU at saturation and Req is the observed optical change in RU at each given C.

4T1 tumor [5] = test system: 4T1 tumor
Method: As a model system, 4T1 mouse mammary carcinoma cell line cells were used to generate tumors in syngeneic BALB/c mice. […] Six to eight weeks old female BALB/c mice were obtained from Charles River. […] A 50 μl 1:1 solution of sterile Matrigel and saline, or the same solution containing 4T1 mouse mammary tumor cells (5×10^6 cells), was injected subcutaneously into the right hind thigh of the animal. Clippers and Nair were used to remove hair from the injection site as well as the lower back and the left thigh of the animals prior to the Matrigel and tumor cell injections. When tumors measured ˜0.5 to 0.8 cm in diameter (6-8 days), the tumor-bearing mice were subjected to in vivo imaging.
Animals were imaged using the following procedures. Animals were anesthetized using isoflurane (3% in O2 at 2 L/min). Prior to the injection of the labeled peptides, animals were subjected to a full body scan to obtain a background fluorescence image. P3378-Alexa680 or P3378R-Alexa680 was administered (25 nmol in 100 μL sterile saline) via the tail vein using a 0.5-ml insulin syringe with a 27-gauge fixed needle. Immediately after, the animal was placed on the heated animals plate (39° C.) of the ART eXplore Optix MX2 imaging system (Advanced Research Technologies, Montreal, Canada). Laser power and counting time per pixel were optimized at 9.6 μW and 0.5 s, respectively. These values remained constant during the entire experiment. The raster scan interval was set at 1.5 mm and was held constant during the acquisition of each image. The data were recorded as Temporal Point-Spread Functions (TPSF), and fluorescence intensity and fluorescence lifetime maps were generated. All images were analyzed using the ART Optix OptiView™ software. Volume data and 3D images were reconstructed using the ART OptiView™ 3D Reconstruction Software Module. All animals were euthanized after the imaging experiments.
Animals were imaged in the ART Optix MX2 small animal imager using three approaches: • a. Mice were injected intravenously (i.v.) via the tail vein with either 5 nanomoles of P3378 peptide labeled with Alexa680, or P3378R peptide labeled with Alexa680; • b. Mice were injected intravenously (i.v.) via the tail vein with either 25 nanomoles of P3378 peptide labeled with Alexa680, or P3378R peptide labeled with Alexa680; • c.

[6] = biological target: T3, epidermal growth factor ectodomain (EGFR-ED) (Homo sapiens, UniProt P00533); assay: SPR specificity test with EGFR ectodomain; assay type: binding; settings: EGFR-ED 70 nM to 5.63 μM over immobilized peptide
T3 construct: the epidermal growth factor ectodomain (EGFR-ED)
Method: as §1

[7] = global fit, one-to-one Langmuir binding model, 25° C.

T2 sequence (P10909 23-227 limits assumed): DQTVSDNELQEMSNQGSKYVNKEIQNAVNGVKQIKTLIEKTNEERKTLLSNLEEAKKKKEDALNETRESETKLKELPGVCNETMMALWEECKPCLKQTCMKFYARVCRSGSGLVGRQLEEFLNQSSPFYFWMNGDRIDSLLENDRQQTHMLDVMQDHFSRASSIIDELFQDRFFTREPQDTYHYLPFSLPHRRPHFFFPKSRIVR
T2 sequence (P10909 228-449 limits assumed): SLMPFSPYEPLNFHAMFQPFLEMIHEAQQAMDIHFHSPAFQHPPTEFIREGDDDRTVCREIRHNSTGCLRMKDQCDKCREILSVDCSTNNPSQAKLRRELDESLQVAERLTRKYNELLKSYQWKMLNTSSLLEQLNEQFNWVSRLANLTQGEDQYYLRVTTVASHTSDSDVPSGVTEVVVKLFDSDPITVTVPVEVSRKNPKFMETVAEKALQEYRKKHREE
T3 sequence (P00533 25-645 limits assumed): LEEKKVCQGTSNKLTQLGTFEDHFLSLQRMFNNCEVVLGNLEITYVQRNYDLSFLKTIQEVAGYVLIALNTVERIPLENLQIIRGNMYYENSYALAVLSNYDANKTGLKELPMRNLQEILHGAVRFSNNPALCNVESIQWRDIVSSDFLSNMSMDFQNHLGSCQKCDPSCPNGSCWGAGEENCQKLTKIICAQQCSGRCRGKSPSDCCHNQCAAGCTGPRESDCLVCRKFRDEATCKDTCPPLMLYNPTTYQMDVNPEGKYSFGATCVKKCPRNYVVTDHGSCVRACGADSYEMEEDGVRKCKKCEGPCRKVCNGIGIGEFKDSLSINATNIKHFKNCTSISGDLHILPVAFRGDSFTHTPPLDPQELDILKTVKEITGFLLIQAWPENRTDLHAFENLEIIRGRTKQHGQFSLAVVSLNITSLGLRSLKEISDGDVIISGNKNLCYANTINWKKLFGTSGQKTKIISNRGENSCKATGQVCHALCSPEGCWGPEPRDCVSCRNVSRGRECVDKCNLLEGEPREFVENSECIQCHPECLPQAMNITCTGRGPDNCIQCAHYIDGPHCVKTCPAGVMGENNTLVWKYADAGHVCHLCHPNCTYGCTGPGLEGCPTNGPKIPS
T1 sequence (P37173 23-166 limits assumed): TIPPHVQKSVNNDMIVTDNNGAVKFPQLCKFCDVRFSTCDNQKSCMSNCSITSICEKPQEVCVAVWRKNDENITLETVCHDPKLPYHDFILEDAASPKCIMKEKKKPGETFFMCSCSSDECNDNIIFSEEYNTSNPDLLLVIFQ

Structure (SMILES): CC(C)C[C@H](NC(=O)[C@@H]1CCCN1C(=O)[C@@H](N)Cc1c[nH]cn1)C(=O)N[C@@H](CO)C(=O)N[C@@H](CCCCN)C(=O)N[C@@H](Cc1c[nH]cn1)C(=O)N1CCC[C@H]1C(=O)N[C@@H](Cc1ccc(O)cc1)C(=O)N[C@@H](Cc1c[nH]c2ccccc12)C(=O)N[C@@H](CO)C(=O)N[C@@H](CCC(N)=O)C(=O)N1CCC[C@H]1C(=O)N[C@@H](CO)C(=O)NCC(=O)N[C@@H](CO)C(=O)NCC(=O)N[C@@H](CS)C(=O)O [P3378]
- blocking of uptake of P3378-DL680 into the tumor by unlabeled peptide (4T1 tumor [1]): successfully blocked uptake
- interaction with Type II TGF-beta receptor [2]: no significant signal was observed
- detection in the other organs [3]: could not be detected
- sequence dependence of the interaction with clusterin ([4]; concluded from scrambled peptides): sequence dependent
- koff [4, 7]: 0.0052 ± 0.0002 s⁻¹
- kon [4, 7]: 17200 M⁻¹ s⁻¹
- Kd ([4]; global fit, one-to-one Langmuir binding model, read-out: Kd (global kinetic fit)): 300 nM
- AUT/AUN ratio as a function of time: behaviour after the initial accumulation (4T1 tumor [5]; co-injection of P3378-Dylight680 and P3378R-Dylight800, 25 nanomoles each i.v.): remains at the tumor site
- residence at the tumor site (4T1 tumor [5]; co-injection of P3378-Dylight680 and P3378R-Dylight800, 25 nanomoles each i.v., 6 animals): resided much longer at the tumor site
- time post-injection up to which both peptides accumulate at the tumor site at the same rate (4T1 tumor [5]; co-injection, AUT/AUN ratio): ~60 min
- binding to EGFR-ED [6]: do not bind specifically
